Data reported in the supplement of paper PMC8617591.

What was measured:
[1] = test system: Mycobacterium tuberculosis Erdman (autoluminescent); assay: FIC50 (Loewe) at 50% inhibition (log2); higher = more antagonistic
Method: (§1)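 DiaMOND equipotent two-drug combination dose responses against autoluminescent M. tuberculosis Erdman in 8 in vitro models. Read-out is OD600, or luminescence for the intracellular and dormancy models, normalised to untreated wells. Hill-fit Einf, AUC25 and GRinf are potency metrics; FIC50 and FIC90 are Loewe-additivity fractional inhibitory concentrations, given as log2 (negative = synergy). Replicates are averaged.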

[2] = test system: Mycobacterium tuberculosis Erdman (autoluminescent); assay: FIC90 (Loewe) at 90% inhibition (log2); higher = more antagonistic
Method: as §1

[3] = test system: Mycobacterium tuberculosis Erdman (autoluminescent); assay: Einf, fitted maximum growth inhibition of combination (fraction); higher = stronger maximal inhibition
Method: as §1

[4] = test system: Mycobacterium tuberculosis Erdman (autoluminescent); assay: GRinf, maximum normalised growth rate inhibition (unitless (-1 to 1)); higher = less effect (negative = killing)
Method: as §1

[5] = test system: Mycobacterium tuberculosis Erdman (autoluminescent); assay: AUC25, normalised area under dose response up to IC25 (fraction (0-1)); higher = more potent at low dose
Method: as §1

NNC(=O)c1ccncc1 [isoniazid] + CO[C@H]1/C=C/O[C@@]2(C)Oc3c(C)c(O)c4c(O)c(c(/C=N/N5CCN(C6CCCC6)CC5)c(O)c4c3C2=O)NC(=O)/C(C)=C\C=C\[C@H](C)[C@H](O)[C@@H](C)[C@@H](O)[C@@H](C)[C@H](OC(C)=O)[C@@H]1C [rifapentine]
Conditions	AUC25, [5]	Einf, [3]	FIC50, [1]	FIC90, [2]	GRinf, [4]
in vitro model: acidic pH 5.7, time point: constant (~7 days, model-specific)	0.0483	0.894	0.277	–	-0.237
in vitro model: acidic pH 5.7, time point: terminal (~4-5 doublings, model-specific)	0.0378	0.987	0.368	0.117	-0.277
in vitro model: intracellular J774, time point: constant = terminal	–	0.935	–	-0.279	-0.145

Conditions	AUC25, [5]	Einf, [3]	FIC50, [1]	FIC90, [2]	GRinf, [4]
in vitro model: butyrate, time point: constant (~7 days, model-specific)	0.0724	0.903	0.471	-0.186	0.0346
in vitro model: butyrate, time point: terminal (~4-5 doublings, model-specific)	0.0522	0.951	0.425	0.159	0.0382
in vitro model: cholesterol 0.05 mM, time point: constant (~7 days, model-specific)	0.0889	0.673	0.00942	–	-0.0811
in vitro model: cholesterol 0.05 mM, time point: terminal (~4-5 doublings, model-specific)	0.0939	0.917	0.122	1.12	-0.127
in vitro model: cholesterol-high 0.2 mM, time point: constant (~7 days, model-specific)	0.0721	0.937	0.338	–	-0.348
in vitro model: cholesterol-high 0.2 mM, time point: terminal (~4-5 doublings, model-specific)	0.0611	0.998	0.562	0.57	-0.717
in vitro model: dormancy (butyrate + nitrate, low O2), time point: constant (~7 days, model-specific)	0.0529	0.926	0.188	-0.294	0.144
in vitro model: dormancy (butyrate + nitrate, low O2), time point: terminal (~4-5 doublings, model-specific)	0.0384	0.985	-0.00795	-0.177	-0.174
in vitro model: standard 7H9 glycerol, time point: constant = terminal	0.0391	0.905	0.622	0.354	0.117
in vitro model: valerate, time point: constant (~7 days, model-specific)	0.034	0.752	0.888	–	0.146
in vitro model: valerate, time point: terminal (~4-5 doublings, model-specific)	0.0276	0.928	1	1.18	-0.00496

NNC(=O)c1ccncc1 [isoniazid] + CO[C@H]1/C=C/O[C@@]2(C)Oc3c(C)c(O)c4c(O)c(c(/C=N/N5CCN(C)CC5)c(O)c4c3C2=O)NC(=O)/C(C)=C\C=C\[C@H](C)[C@H](O)[C@@H](C)[C@@H](O)[C@@H](C)[C@H](OC(C)=O)[C@@H]1C [rifampicin]
Conditions	AUC25, [5]	Einf, [3]	FIC50, [1]	FIC90, [2]	GRinf, [4]
in vitro model: acidic pH 5.7, time point: constant (~7 days, model-specific)	0.0799	0.91	0.156	–	-0.381
in vitro model: acidic pH 5.7, time point: terminal (~4-5 doublings, model-specific)	0.0614	0.99	0.263	0.0584	-0.3
in vitro model: intracellular J774, time point: constant = terminal	–	0.966	–	-0.336	-0.212

Conditions	AUC25, [5]	Einf, [3]	FIC50, [1]	FIC90, [2]	GRinf, [4]
in vitro model: butyrate, time point: constant (~7 days, model-specific)	0.1	0.932	0.279	0.359	-0.0416
in vitro model: butyrate, time point: terminal (~4-5 doublings, model-specific)	0.0861	0.973	0.0238	0.0846	-0.0152
in vitro model: cholesterol 0.05 mM, time point: constant (~7 days, model-specific)	0.107	0.655	0.41	–	0.0341
in vitro model: cholesterol 0.05 mM, time point: terminal (~4-5 doublings, model-specific)	0.0769	0.897	0.0977	0.49	-0.0891
in vitro model: cholesterol-high 0.2 mM, time point: constant (~7 days, model-specific)	0.0535	0.91	-0.107	–	-0.249
in vitro model: cholesterol-high 0.2 mM, time point: terminal (~4-5 doublings, model-specific)	0.0593	1	0.355	0.101	-0.696
in vitro model: dormancy (butyrate + nitrate, low O2), time point: constant (~7 days, model-specific)	0.0607	0.931	-0.181	-1.07	0.104
in vitro model: dormancy (butyrate + nitrate, low O2), time point: terminal (~4-5 doublings, model-specific)	0.0631	0.989	-0.539	-0.256	-0.205
in vitro model: standard 7H9 glycerol, time point: constant = terminal	0.0779	0.914	0.445	-0.093	0.103
in vitro model: valerate, time point: constant (~7 days, model-specific)	0.0388	0.866	0.511	–	0.0415
in vitro model: valerate, time point: terminal (~4-5 doublings, model-specific)	0.0262	0.943	0.396	0.119	0.032

NNC(=O)c1ccncc1 [isoniazid] + COc1c(N2C[C@@H]3CCCN[C@@H]3C2)c(F)cc2c(=O)c(C(=O)O)cn(C3CC3)c12 [moxifloxacin]
Conditions	AUC25, [5]	Einf, [3]	FIC50, [1]	FIC90, [2]	GRinf, [4]
in vitro model: acidic pH 5.7, time point: constant (~7 days, model-specific)	0.108	0.704	0.476	–	-0.263
in vitro model: acidic pH 5.7, time point: terminal (~4-5 doublings, model-specific)	0.0673	0.923	0.361	0.444	-0.118
in vitro model: intracellular J774, time point: constant = terminal	–	0.993	–	0.465	-0.405

Conditions	AUC25, [5]	Einf, [3]	FIC50, [1]	FIC90, [2]	GRinf, [4]
in vitro model: butyrate, time point: constant (~7 days, model-specific)	0.0638	0.926	0.0921	0.134	-0.0481
in vitro model: butyrate, time point: terminal (~4-5 doublings, model-specific)	0.0457	0.969	0.0505	-0.0232	-0.0694
in vitro model: cholesterol 0.05 mM, time point: constant (~7 days, model-specific)	0.121	0.756	0.0749	–	-0.309
in vitro model: cholesterol 0.05 mM, time point: terminal (~4-5 doublings, model-specific)	0.096	0.962	0.0269	0.468	-0.301
in vitro model: cholesterol-high 0.2 mM, time point: constant (~7 days, model-specific)	0.079	0.953	0.049	0.277	-0.524
in vitro model: cholesterol-high 0.2 mM, time point: terminal (~4-5 doublings, model-specific)	0.057	0.995	0.314	0.00349	-0.639
in vitro model: dormancy (butyrate + nitrate, low O2), time point: constant (~7 days, model-specific)	0.076	0.91	0.000113	-0.385	0.143
in vitro model: dormancy (butyrate + nitrate, low O2), time point: terminal (~4-5 doublings, model-specific)	0.0785	0.985	0.0985	0.553	-0.158
in vitro model: standard 7H9 glycerol, time point: constant = terminal	0.0762	0.981	0.317	0.332	-0.218
in vitro model: valerate, time point: constant (~7 days, model-specific)	0.0691	0.863	0.215	–	0.0468
in vitro model: valerate, time point: terminal (~4-5 doublings, model-specific)	0.0467	0.94	0.279	0.294	0.0344

NNC(=O)c1ccncc1 [isoniazid] + NC(=O)c1cnccn1 [pyrazinamide]
Conditions	AUC25, [5]	Einf, [3]	FIC50, [1]	FIC90, [2]	GRinf, [4]
in vitro model: acidic pH 5.7, time point: constant (~7 days, model-specific)	0.097	0.857	-0.176	–	-0.422
in vitro model: acidic pH 5.7, time point: terminal (~4-5 doublings, model-specific)	0.0846	0.977	0.19	-0.784	-0.338
in vitro model: intracellular J774, time point: constant = terminal	–	0.964	–	0.267	-0.218

Conditions	AUC25, [5]	Einf, [3]	FIC50, [1]	FIC90, [2]	GRinf, [4]
in vitro model: butyrate, time point: constant (~7 days, model-specific)	0.0844	0.931	-0.141	0.439	0.0223
in vitro model: butyrate, time point: terminal (~4-5 doublings, model-specific)	0.053	0.954	-0.11	-0.0985	0.0459
in vitro model: cholesterol 0.05 mM, time point: constant (~7 days, model-specific)	0.112	0.758	–	–	-0.252
in vitro model: cholesterol 0.05 mM, time point: terminal (~4-5 doublings, model-specific)	0.119	0.951	-0.117	–	-0.372
in vitro model: cholesterol-high 0.2 mM, time point: constant (~7 days, model-specific)	0.0915	0.908	0.321	–	-0.322
in vitro model: cholesterol-high 0.2 mM, time point: terminal (~4-5 doublings, model-specific)	0.0717	0.995	0.538	0.4	-0.664
in vitro model: dormancy (butyrate + nitrate, low O2), time point: constant (~7 days, model-specific)	0.0844	0.897	-0.543	-0.165	0.244
in vitro model: dormancy (butyrate + nitrate, low O2), time point: terminal (~4-5 doublings, model-specific)	0.0579	0.984	-0.16	-0.412	-0.119
in vitro model: standard 7H9 glycerol, time point: constant = terminal	0.0332	0.861	-0.124	–	0.248
in vitro model: valerate, time point: constant (~7 days, model-specific)	0.0637	0.78	-0.102	–	0.208
in vitro model: valerate, time point: terminal (~4-5 doublings, model-specific)	0.0551	0.839	0.196	0.67	0.173
